Measured values as given in patent US10144746B2 (GLOBAL BLOOD THERAPEUTICS, INC., priority 2015, dated 2018).

Target: Human plasma kallikrein (Homo sapiens (Human), UniProt P03952)
Experiment: In vitro plasma kallikrein inhibition assay (chromogenic substrate D-Pro-Phe-Arg-pNa, absorbance at 405 nm, IC50 determination)
Assay type: biochemical
Details: read-out: KLKB1 pIC50 (converted)
Experimental: In Vitro Plasma Kallikrein Inhibition Assay
The chromogenic substrate D-Pro-Phe-Arg-pNa, 2HCl (BIOPHEN CS-31(02) from Hyphen BioMed, Neuville-Sur-oise, France) was dissolved in 5 mL deionized water and stored at 4° C. […] All other chemicals were of analytical grade.
A stock solution of 7 μM in 50% glycerol was stored at −20° C.
Enzyme reactions were conducted in “assay buffer” comprised of 20 mM HEPES at pH 7.4, 150 mM NaCl, 0.1% PEG-8000 and 0.01% Triton X-100.
Both enzyme and substrate were diluted in assay buffer.
Plate measurements were conducted using a SPECTROStar Nano reader (BMG Labtech, San Francisco, Calif., USA). […] We used discrete wavelength, precise, kinetic reads of 15 cycles with a 60 sec cycle time.
Determination of IC50 values
The test compound was dissolved in 100% DMSO. The compounds were serially diluted in DMSO in a 7 point dose response. For the assays, 66.5 μL of protease solution (protease in assay buffer) was added per well followed by the addition of 8.5 μL of compound in 100% DMSO. […] After 30 min. incubation at room temperature on an orbital shaker, the reactions were started by the addition of 10 μL substrate solution (in assay buffer, final assay concentration was 600 uM). After the addition of the substrate solution the final DMSO concentration was 10%. The plate was placed again on the shaker for 5 sec, spun at 2000 rpm for 5 sec and read on the spectrophotometer. […] The IC50 value was calculated from the plot of rate vs. inhibitor concentration by a 4 parameter logistic equation: y=A+((B−A)/([…]))
where y is the rate at the inhibitor concentration, x. A is the minimum y value at the highest inhibitor concentration and B is the y value in the absence of inhibitor, C is the IC50 value and D is the slope factor. The curve fitting was conducted with the non-linear regression routine of the analysis software XLfit (IDBS, version 5.3.1).

Chain of Human plasma kallikrein (P03952 391-638): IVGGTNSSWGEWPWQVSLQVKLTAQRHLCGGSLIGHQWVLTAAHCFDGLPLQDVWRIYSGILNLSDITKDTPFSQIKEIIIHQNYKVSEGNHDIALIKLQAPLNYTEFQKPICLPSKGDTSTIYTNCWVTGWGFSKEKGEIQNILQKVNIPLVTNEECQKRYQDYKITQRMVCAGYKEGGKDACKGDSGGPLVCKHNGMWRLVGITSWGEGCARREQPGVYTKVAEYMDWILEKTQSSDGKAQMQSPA
Chain of Human plasma kallikrein (P03952 20-390 partner): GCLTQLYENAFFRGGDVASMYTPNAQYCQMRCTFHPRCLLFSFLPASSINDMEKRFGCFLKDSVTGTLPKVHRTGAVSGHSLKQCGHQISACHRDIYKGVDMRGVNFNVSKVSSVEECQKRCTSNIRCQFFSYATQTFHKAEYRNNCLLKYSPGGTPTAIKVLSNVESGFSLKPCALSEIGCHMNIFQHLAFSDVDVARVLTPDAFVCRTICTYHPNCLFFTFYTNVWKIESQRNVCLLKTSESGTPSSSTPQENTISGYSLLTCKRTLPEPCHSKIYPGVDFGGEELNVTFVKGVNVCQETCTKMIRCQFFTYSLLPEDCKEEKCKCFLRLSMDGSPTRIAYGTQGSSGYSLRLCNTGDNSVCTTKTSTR

SMILES | IC50
Nc1ncc(CNC(=O)c2ccc3c(c2)C2OC3c3ccc(-c4ccc(F)cc4F)cc32)c2ccccc12 (racemic) [Example 155, (±)-N-[(1-aminoisoquinolin-4-yl)methyl]-12-(2,4-difluorophenyl)-15-oxatetracyclo [6.6.1.0^2,^7.0^9,1^4]-pentadeca-2,4,6,9,11,13-hexaene-4-carboxamide] | 4070 nM
Cc1ccc(-c2ccc3c(c2)C2OC3c3ccc(C(=O)NCc4c(C)cc(N)nc4C)cc32)c(C#N)n1 (racemic) [Example 157, (±)-N-[(6-amino-2,4-dimethylpyridin-3-yl)-methyl]-12-(2-cyano-6-methylpyridin-3-yl)-15-oxatetracyclo [6.6.1.0^2,^7.0^9,1^4] pentadeca-2,4,6,9,11,13-hexaene-4-carboxamide] | 22.9 nM
Cc1cc(N)nc(C)c1CNC(=O)c1ccc2c(c1)C1OC2c2ccc(-c3cccc(C(F)(F)F)c3C#N)cc21 (racemic) [Example 158, (±)-N-[(6-amino-2,4-dimethylpyridin-3-yl)-methyl]-12-[2-cyano-3-(trifluoromethyl)phenyl]-15-oxatetracyclo[6.6.1.0^2,^7.0^9,1^4] pentadeca-2,4,6,9,11,13-hexaene-4-carboxamide] | 112 nM
Cc1cccc(Oc2ccc3c(c2)C2OC3c3ccc(C(=O)NCc4c(C)cc(N)nc4C)cc32)c1 (racemic) [Example 159, (±)-N-[(6-amino-2,4-dimethylpyridin-3-yl)-methyl]-12-(3-methylphenoxy)-15-oxatetracyclo[6.6.1.0^2,^7.0^9,1^4] pentadeca-2,4,6,9,11,13-hexaene-4-carboxamide] | 1860 nM
Cc1c(CNC(=O)c2ccc3c(c2)C2OC3c3ccc(Cn4cccn4)cc32)c(F)cc2c1CNC2 (racemic) [Example 160, (±)-N-[(6-fluoro-4-methyl-2,3-dihydro-1H-isoindol-5-yl)methyl]-12-[(1H-pyrazol-1-yl)methyl]-15-oxatetracyclo [6.6.1.0^2,^7.0^9,1^4]-pentadeca-2,4,6,9,11,13-hexaene-4-carboxamide] | 120 nM
Cc1cc2c(c(C)c1CNC(=O)c1ccc3c(c1)C1OC3c3ccc(Cn4cccn4)cc31)CNC2 (racemic) [Example 161, (±)-N-[(4,6-dimethyl-2,3-dihydro-1H-isoindol-5-yl)methyl]-12-[(1H-pyrazol-1-yl)methyl]-15-oxatetracyclo[6.6.1.0^2,^7.0^9,1^4]-pentadeca-2,4,6,9,11,13-hexaene-4-carboxamide] | 1290 nM
Cc1cnn(Cc2ccc3c(c2)C2OC3c3ccc(C(=O)NCc4c(C)cc5c(c4C)CNC5)cc32)c1 (racemic) [Example 162, (±)-N-[(4,6-dimethyl-2,3-dihydro-1H-isoindol-5-yl)methyl]-12-[(4-methyl-1H-pyrazol-1-yl)methyl]-15-oxatetracyclo [6.6.1.0^2,^7.0^9,1^4]-pentadeca-2,4,6,9,11,13-hexaene-4-carboxamide] | 72.4 nM
COc1ccncc1-c1ccc2c(c1)C1OC2c2ccc(C(=O)NCc3c(C)cc(N)nc3C)cc21 (racemic) [Example 167, (±)-N-[(6-amino-2,4-dimethylpyridin-3-yl)-methyl]-12-(4-methoxypyridin-3-yl)-15-oxatetracyclo[6.6.1.0^2,^7.0^9,1^4] pentadeca-2,4,6,9,11,13-hexaene-4-carboxamide] | 115 nM
Cc1cc(N)nc(C)c1CNC(=O)c1ccc2c(c1)C1OC2c2ccc(C(=O)c3ccccc3)cc21 (racemic) [Example 188, (±)-N-[(6-amino-2,4-dimethylpyridin-3-yl)methyl]-12-benzoyl-15-oxatetracyclo-[6.6.1.0^2,^7.0^9,1^4]pentadeca-2,4,6,9,11,13-hexaene-4-carboxamide] | 10 nM
N=C(N)c1ccc(CNC(=O)c2ccc3c(c2)C2OC3c3ccc(-c4ccccc4)cc32)cc1 (racemic) [Example 189, (±)-N-[(4-carbamimidoylphenyl)methyl]-12-phenyl-15-oxatetracyclo[6.6.1.0^2,^7.0^9,1^4]-pentadeca-2,4,6,9,11,13-hexaene-4-carboxamide] | 4.57 nM
CN(C)C(=NC(=N)c1ccc(CNC(=O)c2ccc3c(c2)C2OC3c3ccc(-c4ccccc4)cc32)cc1)N(C)C (racemic) [Example 190, (±)-N-{[4-({[bis(dimethylamino)methylidene]-amino}methanimidoyl)phenyl]methyl}-12-phenyl-15-oxatetracyclo[6.6.1.0^2,^7.0^9,1^4] pentadeca-2,4,6,9,11,13-hexaene-4-carboxamide] | 129 nM
N/C(=N\O)c1ccc(CNC(=O)c2ccc3c(c2)C2OC3c3ccc(-c4ccc(F)cc4F)cc32)cc1F (racemic) [Example 197, (±)-12-(2,4-difluorophenyl)-N-({3-fluoro-4-[N′-hydroxycarbamimidoyl]phenyl}methyl)-15-oxatetracyclo[6.6.1.0^2,^7.0^9,1^4] pentadeca-2,4,6,9,11,13-hexaene-4-carboxamide] | 100000 nM
N=C(N)c1ccc(CNC(=O)c2ccc3c(c2)C2OC3c3ccc(-c4ccc(F)cc4F)cc32)cc1F (racemic) [Example 198, (±)-N-[(4-carbamimidoyl-3-fluorophenyl)methyl]-12-(2,4-difluorophenyl)-15-oxatetracyclo-[6.6.1.0^2,^7.0^9,1^4]pentadeca-2,4,6,9,11,13-hexaene-4-carboxamide] | 20.9 nM
CC(=O)N1C2c3ccc(C(=O)NCc4c(C)cc(N)nc4C)cc3C1c1cc(-c3ccc(F)cc3F)ccc12 (racemic) [Example 209, (±)-15-acetyl-N-[(6-amino-2,4-dimethylpyridin-3-yl)methyl]-12-(2,4-difluorophenyl)-15-azatetracyclo[6.6.1.0^2,^7.0^9,1^4] pentadeca-2,4,6,9,11,13-hexaene-4-carboxamide and (±)-15-acetyl-N-[(6-amino-2,4-dimethylpyridin-3-yl)methyl]-11-(2,4-difluorophenyl)-15-azatetracyclo[6.6.1.0^2,^7.0^9,1^4] pentadeca-2,4,6,9,11,13-hexaene-4-carboxamide] | 3470 nM

More lines, now with the values ahead:

IC50 | SMILES
93.3 nM | Cc1ccc(C#N)c(-c2ccc3c(c2)C2OC3c3ccc(C(=O)NCc4c(C)cc(N)nc4C)cc32)c1 (racemic) [Example 156, (±)-N-[(6-amino-2,4-dimethylpyridin-3-yl)-methyl]-12-(2-cyano-5-methylphenyl)-15-oxatetracyclo[6.6.1.0^2,^7.0^9,1^4] pentadeca-2,4,6,9,11,13-hexaene-4-carboxamide]
6760 nM | Cc1cc(CNC(=O)c2ccc3c(c2)C2OC3c3ccc(-c4ccc(F)cc4F)cc32)c(C)nc1N (racemic) [Example 166, (±)-N-[(6-amino-2,5-dimethylpyridin-3-yl)-methyl]-12-(2,4-difluorophenyl)-15-oxatetracyclo[6.6.1.0^2,^7.0^9,1^4] pentadeca-2,4,6,9,11,13-hexaene-4-carboxamide]
20000 nM | Nc1cc(CNC(=O)c2ccc3c(c2)C2OC3c3ccc(-c4ccc(F)cc4F)cc32)ccn1 (racemic) [Example 168, (±)-N-[(2-aminopyridin-4-yl)methyl]-12-(2,4-difluorophenyl)-15-oxatetracyclo[6.6.1.0^2,^7.0^9,1^4]-pentadeca-2,4,6,9,11,13-hexaene-4-carboxamide]
34.7 nM | Cc1cc(N)nc(C)c1CNC(=O)c1ccc2c(c1)C1OC2c2ccc(-c3cc(F)c(F)cc3F)cc21 (racemic) [Example 169, (±)-N-[(6-amino-2,4-dimethylpyridin-3-yl)-methyl]-12-(2,4,5-trifluorophenyl)-15-oxatetra-cyclo [6.6.1.0^2,^7.0^9,1^4]pentadeca-2,4,6,9,11,13-hexaene-4-carboxamide]
10 nM | CCCc1cc(N)nc(C)c1CNC(=O)c1ccc2c(c1)C1OC2c2ccc(-c3ccc(F)cc3F)cc21 (racemic) [Example 172, (±)-N-[(6-amino-2-methyl-4-propylpyridin-3-yl)methyl]-12 (2,4-difluorophenyl)-15-oxatetracyclo[6.6.1.0^2,^7.0^9,1^4] pentadeca-2,4,6,9,11,13-hexaene-4-carboxamide]
3.02 nM | Cc1nc(N)cc(C(C)C)c1CNC(=O)c1ccc2c(c1)C1OC2c2ccc(-c3ccc(F)cc3F)cc21 (racemic) [Example 173, (±)-N-{[6-amino-2-methyl-4-(propan-2-yl)pyridin-3-yl]methyl}-12-(2,4-difluorophenyl)-15-oxatetra-cyclo[6.6.1.0^2,^7.0^9,1^4]pentadeca-2,4,6,9,11,13-hexaene-4-carboxamide]
11 nM | Cc1nc(N)cc(C2CC2)c1CNC(=O)c1ccc2c(c1)C1OC2c2ccc(-c3ccc(F)cc3F)cc21 (racemic) [Example 180, (±)-N-[(6-amino-4-cyclopropyl-2-methylpyridin-3-yl)methyl]-12-(2,4-difluorophenyl)-15-oxatetracyclo[6.6.1.0^2,^7.0^9,1^4] pentadeca-2,4,6,9,11,13-hexaene-4-carboxamide]
